Measured values reported in patent publication US20210255193A1, “LYSINE REACTIVE PROBES AND USES THEREOF” (The Scripps Research Institute, priority 2017, published 2021).

What was measured:
SFXN1 Sideroflexin-1 = target: T1, SFXN1 Sideroflexin-1 (Homo sapiens, UniProt Q9H9B4); assay: competitive isoTOP-ABPP; type: binding; conditions: for isoTOP-ABPP reactivity ratio at lysine Q9H9B4_K170 / isoTOP-ABPP ratio (R) at liganded lysine Q9H9B4_K170: 50 uM, in vitro; for isoTOP-ABPP reactivity ratio at lysine Q9H9B4_K170: 231 sol; for isoTOP-ABPP ratio (R) at liganded lysine Q9H9B4_K170: sol, 231
T1 construct: endogenous in cells; host or cells: MDA-MB-231 lysate
T1 sequence (Q9H9B4 1-322): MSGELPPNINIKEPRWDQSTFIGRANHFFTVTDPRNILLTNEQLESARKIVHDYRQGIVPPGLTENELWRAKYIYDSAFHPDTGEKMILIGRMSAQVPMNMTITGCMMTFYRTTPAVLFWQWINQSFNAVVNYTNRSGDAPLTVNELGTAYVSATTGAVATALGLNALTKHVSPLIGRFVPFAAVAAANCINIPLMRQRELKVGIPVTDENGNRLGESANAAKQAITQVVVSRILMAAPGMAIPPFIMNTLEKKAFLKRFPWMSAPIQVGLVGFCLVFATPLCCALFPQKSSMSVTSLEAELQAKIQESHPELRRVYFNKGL
Summary of the method: (§1)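 Lysine engagement is reported as R, the MS1 peak-area ratio of heavy-tagged DMSO to light-tagged compound samples. Final fragment concentrations were 50 μM for activated esters and 100 μM for guanidinylating agents; STP-alkyne probe 0.1 mM, 1 h.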

[1] = target: T2, MTHFD1 C-1-tetrahydrofolate synthase, cytoplasmic (Homo sapiens, UniProt P11586); assay: competitive isoTOP-ABPP; type: binding; conditions: for isoTOP-ABPP reactivity ratio at lysine P11586_K760 / isoTOP-ABPP ratio (R) at liganded lysine P11586_K760: 50 uM, in vitro; for isoTOP-ABPP reactivity ratio at lysine P11586_K760: 231 sol; for isoTOP-ABPP ratio (R) at liganded lysine P11586_K760: sol, 231
T2 construct: isoTOP-ABPP experiments performed in cell lysates (in vitro); endogenous in cells; host or cells: MDA-MB-231 soluble lysate
T2 sequence (P11586 1-935): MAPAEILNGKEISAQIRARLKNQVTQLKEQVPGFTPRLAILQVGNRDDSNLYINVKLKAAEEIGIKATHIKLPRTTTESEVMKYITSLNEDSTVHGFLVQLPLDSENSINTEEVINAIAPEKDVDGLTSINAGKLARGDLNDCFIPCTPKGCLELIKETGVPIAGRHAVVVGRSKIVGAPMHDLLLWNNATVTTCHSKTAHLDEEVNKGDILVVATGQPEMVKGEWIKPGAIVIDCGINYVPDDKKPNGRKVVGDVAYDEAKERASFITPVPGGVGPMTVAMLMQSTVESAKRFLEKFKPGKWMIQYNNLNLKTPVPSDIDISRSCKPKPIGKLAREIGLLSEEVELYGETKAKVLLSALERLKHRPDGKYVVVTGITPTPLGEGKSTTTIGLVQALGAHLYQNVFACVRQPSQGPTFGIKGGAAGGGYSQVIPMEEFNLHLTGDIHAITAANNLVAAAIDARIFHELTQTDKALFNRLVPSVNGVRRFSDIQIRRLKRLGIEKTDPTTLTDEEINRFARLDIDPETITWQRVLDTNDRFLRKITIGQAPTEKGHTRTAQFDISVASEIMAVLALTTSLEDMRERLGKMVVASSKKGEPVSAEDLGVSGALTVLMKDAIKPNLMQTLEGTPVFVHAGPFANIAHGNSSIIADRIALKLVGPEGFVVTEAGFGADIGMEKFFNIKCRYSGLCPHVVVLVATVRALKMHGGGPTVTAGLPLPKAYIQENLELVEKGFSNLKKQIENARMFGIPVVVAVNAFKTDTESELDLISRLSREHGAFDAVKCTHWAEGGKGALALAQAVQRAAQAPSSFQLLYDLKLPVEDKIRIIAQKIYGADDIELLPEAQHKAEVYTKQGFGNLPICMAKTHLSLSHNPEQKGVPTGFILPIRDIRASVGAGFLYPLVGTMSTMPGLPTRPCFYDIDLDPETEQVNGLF
Summary of the method: as §1

Structure (SMILES) | isoTOP-ABPP reactivity ratio at lysine Q9H9B4_K170 (SFXN1 Sideroflexin-1) | isoTOP-ABPP reactivity ratio at lysine P11586_K760 [1] | isoTOP-ABPP ratio, lysine Q9H9B4_K170 (SFXN1 Sideroflexin-1; 50 uM_231_sol_in vitro) | also measured
O=C(CCc1cn(-c2ccccc2)nc1-c1ccccc1)Oc1ccc([N+](=O)[O-])cc1[N+](=O)[O-] [fragment 29, 2,4-Dinitrophenyl 3-(1,3-diphenyl-1H-pyrazol-4-yl)propanoate] | 20.0 |  |  | 
O=C(Oc1ccc([N+](=O)[O-])cc1[N+](=O)[O-])C(c1ccccc1)c1ccccc1 [fragment 30, 2,4-Dinitrophenyl 2,2-diphenylacetate] | 4.5 | 0.9 |  | 
O=C(Oc1ccc([N+](=O)[O-])cc1[N+](=O)[O-])c1cc(C(F)(F)F)cc(C(F)(F)F)c1 [fragment 31, 2,4-Dinitrophenyl 3,5-bis(trifluoromethyl)benzoate] |  | 0.8 |  | 
Cn1cc(CC(=O)Oc2ccc([N+](=O)[O-])cc2[N+](=O)[O-])c2ccccc21 [fragment 32, 2,4-Dinitrophenyl 2-(1-methyl-1H-indol-3-yl)acetate] | 8.6 | 0.6 |  | 
O=C(CC12CC3CC(CC(C3)C1)C2)Oc1ccc([N+](=O)[O-])cc1[N+](=O)[O-] [fragment 38, 2,4-Dinitrophenyl 2-(adamantan-1-yl)acetate] |  |  |  | isoTOP-ABPP ratio (R) at liganded lysine P11586_K760 [1]: 1.3; isoTOP-ABPP ratio (R) at liganded lysine Q9H9B4_K170 (SFXN1 Sideroflexin-1): 1.9
CC(C)(C)OC(=O)NCCCC(=O)Oc1ccc([N+](=O)[O-])cc1[N+](=O)[O-] [fragment 41, 2,4-Dinitrophenyl 4-((tert-butoxycarbonyl)amino)butanoate] |  |  |  | isoTOP-ABPP ratio (R) at liganded lysine P11586_K760 [1]: 4.2; isoTOP-ABPP ratio (R) at liganded lysine Q9H9B4_K170 (SFXN1 Sideroflexin-1): 2.5
N#Cc1ccc(C(=O)Oc2ccc([N+](=O)[O-])cc2[N+](=O)[O-])cc1 [fragment 44, 2,4-Dinitrophenyl 4-cyanobenzoate] |  |  | 0.9 | 
O=C(CCc1ccc2c(c1)OCO2)Oc1ccc([N+](=O)[O-])cc1[N+](=O)[O-] [fragment 45, 2,4-Dinitrophenyl 3-(benzo[d][1,3]dioxol-5-yl)propanoate] |  |  | 2.1 | 
O=C(ON1C(=O)CCC1=O)c1cc(C(F)(F)F)cc(C(F)(F)F)c1 [fragment 46, 3,5-Bis(trifluoromethyl)benzoic acid NHS ester] |  |  | 0.9 | 
CC(C)(C)OC(=O)N=C(NC(=O)OC(C)(C)C)n1cccn1 [fragment 50, reference compound] |  |  |  | isoTOP-ABPP ratio, lysine P11586_K760 ([1]; 100 uM_231_sol_in vitro): 0.6; isoTOP-ABPP ratio, lysine Q9H9B4_K170 (SFXN1 Sideroflexin-1; 100 uM_231_sol_in vitro): 1.9
